Measured values from ChEMBL document CHEMBL3885881, “DrugMatrix”.

Species: Rattus norvegicus
Assay: DrugMatrix - Regimen: Daily Repeat
Assay type: toxicity, organism-based, Sprague-Dawley
Set-up: regimen Daily Repeat, gender Male, age 6-8 weeks
Settings: in vivo, sc, route subcutaneous, […]; for ALANINE AMINOTRANSFERASE / ALKALINE PHOSPHATASE / ASPARTATE AMINOTRANSFERASE / BLOOD UREA NITROGEN / CARBON DIOXIDE / CHOLESTEROL / CREATINE PHOSPHOKINASE / CREATININE / GLUCOSE / LACTATE DEHYDROGENASE / LIPASE / PHOSPHORUS / POTASSIUM / TOTAL BILIRUBIN / TOTAL PROTEIN / URIC ACID / ALBUMIN / CHLORIDE: tissue Plasma
[1] = 0 mg/kg, 72 h, tissue Blood, dose level Control, time 3 day
[2] = 0 mg/kg, 72 h, dose level Control, time 3 day
[3] = 0 mg/kg, 120 h, tissue Blood, dose level Control, time 5 day
[4] = 0 mg/kg, 120 h, dose level Control, time 5 day
[5] = 10 mg/kg, 72 h, tissue Blood, dose level Low, time 3 day
[6] = 10 mg/kg, 72 h, dose level Low, time 3 day
[7] = 10 mg/kg, 120 h, tissue Blood, dose level Low, time 5 day
[8] = 10 mg/kg, 120 h, dose level Low, time 5 day
[9] = 100 mg/kg, 72 h, tissue Blood, dose level High, time 3 day
[10] = 100 mg/kg, 72 h, dose level High, time 3 day
[11] = 100 mg/kg, 120 h, tissue Blood, dose level High, time 5 day
[12] = 100 mg/kg, 120 h, dose level High, time 5 day

## COBALT(II) ACETYLACETONATE
[1]
  ABSOLUTE BASOPHIL: 0 CELLS/uL
  ABSOLUTE EOSINOPHIL: 42.67 CELLS/uL
  ABSOLUTE LYMPHOCYTE: 10202 CELLS/uL
  ABSOLUTE MONOCYTE: 261.5 CELLS/uL
  ABSOLUTE SEGMENTED NEUTROPHIL: 2193.83 CELLS/uL
  BASOPHIL: 0%
  EOSINOPHIL: 0.33%
  ERYTHROCYTE COUNT: 5.63 x10E6/uL
  HEMATOCRIT: 35.35%
  HEMOGLOBIN: 13.07 G/DL
  LEUKOCYTE COUNT: 12.7 x10E3/uL
  LYMPHOCYTE: 81.17%
  MEAN CORPUSCULAR HEMOGLOBIN: 23.23 pg
  MEAN CORPUSCULAR HEMOGLOBIN CONCENTRATION: 36.97 G/DL
  MONOCYTE: 2%
  NUCLEATED RED BLOOD CELLS: 0 /100WBC
  PLATELET COUNT: 1180.33 x10E3/uL
[2]
  ALANINE AMINOTRANSFERASE: 48.67 u/L
  ALKALINE PHOSPHATASE: 360.67 u/L
  ASPARTATE AMINOTRANSFERASE: 85.5 u/L
  BLOOD UREA NITROGEN: 17.83 mg/dL
  CARBON DIOXIDE: 26.17 mmol/L
  CHOLESTEROL: 71 mg/dL
  CREATINE PHOSPHOKINASE: 515.17 u/L
  CREATININE: 0.22 mg/dL
  GLUCOSE: 192.5 mg/dL
  LACTATE DEHYDROGENASE: 214.67 u/L
  LIPASE: 8.5 u/L
  PHOSPHORUS: 12.95 mg/dL
  POTASSIUM: 6.39 MEQ/L
  TOTAL BILIRUBIN: 0.18 mg/dL
  TOTAL PROTEIN: 5.95 G/DL
[3]
  ABSOLUTE BASOPHIL: 0 CELLS/uL
  ABSOLUTE EOSINOPHIL: 188.5 CELLS/uL
  ABSOLUTE LYMPHOCYTE: 12360.83 CELLS/uL
  ABSOLUTE MONOCYTE: 64.33 CELLS/uL
  ABSOLUTE SEGMENTED NEUTROPHIL: 1986.33 CELLS/uL
  BASOPHIL: 0%
  ERYTHROCYTE COUNT: 5.52 x10E6/uL
  HEMOGLOBIN: 13.25 G/DL
  LEUKOCYTE COUNT: 14.6 x10E3/uL
  LYMPHOCYTE: 84.5%
  MEAN CORPUSCULAR HEMOGLOBIN: 24.05 pg
  MEAN CORPUSCULAR HEMOGLOBIN CONCENTRATION: 36.98 G/DL
  MEAN CORPUSCULAR VOLUME: 64.97 fL
  MONOCYTE: 0.5%
  NEUTROPHIL: 13.67%
  NUCLEATED RED BLOOD CELLS: 0 /100WBC
  PLATELET COUNT: 1297.83 x10E3/uL
[4]
  ALANINE AMINOTRANSFERASE: 51.17 u/L
  ALKALINE PHOSPHATASE: 393.17 u/L
  ASPARTATE AMINOTRANSFERASE: 111 u/L
  BLOOD UREA NITROGEN: 18.17 mg/dL
  CARBON DIOXIDE: 25 mmol/L
  CHOLESTEROL: 65.5 mg/dL
  CREATINE PHOSPHOKINASE: 911.5 u/L
  CREATININE: 0.21 mg/dL
  GLUCOSE: 183 mg/dL
  LACTATE DEHYDROGENASE: 189 u/L
  LIPASE: 8.33 u/L
  PHOSPHORUS: 12.78 mg/dL
  POTASSIUM: 6.05 MEQ/L
  TOTAL BILIRUBIN: 0.25 mg/dL
  TOTAL PROTEIN: 5.83 G/DL
  URIC ACID: 1.58 mg/dL
[5]
  ABSOLUTE BASOPHIL: 0 CELLS/uL
  ABSOLUTE EOSINOPHIL: 159.33 CELLS/uL
  ABSOLUTE MONOCYTE: 0 CELLS/uL
  ABSOLUTE SEGMENTED NEUTROPHIL: 812 CELLS/uL
  BASOPHIL: 0%
  ERYTHROCYTE COUNT: 5.08 x10E6/uL
  HEMATOCRIT: 32.57%
  HEMOGLOBIN: 12.17 G/DL
  LEUKOCYTE COUNT: 12.37 x10E3/uL
  LYMPHOCYTE: 92%
  MEAN CORPUSCULAR HEMOGLOBIN: 23.97 pg
  MEAN CORPUSCULAR HEMOGLOBIN CONCENTRATION: 37.37 G/DL
  MONOCYTE: 0%
  NEUTROPHIL: 6.67%
  NUCLEATED RED BLOOD CELLS: 0 /100WBC
  PLATELET COUNT: 1184.33 x10E3/uL
[6]
  ALANINE AMINOTRANSFERASE: 47.67 u/L
  ALKALINE PHOSPHATASE: 375.67 u/L
  ASPARTATE AMINOTRANSFERASE: 80 u/L
  CARBON DIOXIDE: 27 mmol/L
  CHOLESTEROL: 76 mg/dL
  CREATINE PHOSPHOKINASE: 254.67 u/L
  CREATININE: 0.19 mg/dL
  GLUCOSE: 171.67 mg/dL
  LACTATE DEHYDROGENASE: 104.33 u/L
  LIPASE: 8.33 u/L
  PHOSPHORUS: 11.6 mg/dL
  TOTAL BILIRUBIN: 0.13 mg/dL
  TOTAL PROTEIN: 5.73 G/DL
[7]
  ABSOLUTE BASOPHIL: 0 CELLS/uL
  ABSOLUTE EOSINOPHIL: 119 CELLS/uL
  ABSOLUTE MONOCYTE: 35.33 CELLS/uL
  ABSOLUTE SEGMENTED NEUTROPHIL: 1425 CELLS/uL
  BASOPHIL: 0%
  EOSINOPHIL: 1%
  ERYTHROCYTE COUNT: 5.83 x10E6/uL
  HEMATOCRIT: 36.63%
  HEMOGLOBIN: 13.67 G/DL
  LEUKOCYTE COUNT: 11.87 x10E3/uL
  LYMPHOCYTE: 86.67%
  MEAN CORPUSCULAR HEMOGLOBIN: 23.47 pg
  MEAN CORPUSCULAR HEMOGLOBIN CONCENTRATION: 37.3 G/DL
  MONOCYTE: 0.33%
  NEUTROPHIL: 12%
  NUCLEATED RED BLOOD CELLS: 0 /100WBC
  PLATELET COUNT: 1357.67 x10E3/uL
[8]
  ALANINE AMINOTRANSFERASE: 36.67 u/L
  ALBUMIN: 4.6 G/DL
  ALKALINE PHOSPHATASE: 390 u/L
  ASPARTATE AMINOTRANSFERASE: 87 u/L
  BLOOD UREA NITROGEN: 22 mg/dL
  CARBON DIOXIDE: 21.67 mmol/L
  CHOLESTEROL: 77 mg/dL
  CREATINE PHOSPHOKINASE: 460.67 u/L
  CREATININE: 0.24 mg/dL
  GLUCOSE: 176.67 mg/dL
  LACTATE DEHYDROGENASE: 122.67 u/L
  PHOSPHORUS: 13.67 mg/dL
  POTASSIUM: 6.74 MEQ/L
  TOTAL BILIRUBIN: 0.2 mg/dL
  TOTAL PROTEIN: 6.7 G/DL
  URIC ACID: 2.8 mg/dL
[9]
  ABSOLUTE BASOPHIL: 0 CELLS/uL
  ABSOLUTE EOSINOPHIL: 73 CELLS/uL
  ABSOLUTE LYMPHOCYTE: 8659.67 CELLS/uL
  ABSOLUTE MONOCYTE: 133.33 CELLS/uL
  ABSOLUTE SEGMENTED NEUTROPHIL: 2500.67 CELLS/uL
  BASOPHIL: 0%
  EOSINOPHIL: 0.67%
  ERYTHROCYTE COUNT: 5.76 x10E6/uL
  HEMOGLOBIN: 13.3 G/DL
  LEUKOCYTE COUNT: 11.37 x10E3/uL
  LYMPHOCYTE: 75.67%
  MEAN CORPUSCULAR HEMOGLOBIN: 23.1 pg
  MEAN CORPUSCULAR HEMOGLOBIN CONCENTRATION: 37.2 G/DL
  MONOCYTE: 1%
  NEUTROPHIL: 22.67%
  NUCLEATED RED BLOOD CELLS: 0 /100WBC
  PLATELET COUNT: 1207 x10E3/uL
[10]
  ALANINE AMINOTRANSFERASE: 57.33 u/L
  ALKALINE PHOSPHATASE: 376.67 u/L
  ASPARTATE AMINOTRANSFERASE: 106 u/L
  BLOOD UREA NITROGEN: 17.67 mg/dL
  CARBON DIOXIDE: 26.33 mmol/L
  CHLORIDE: 109 MEQ/L
  CHOLESTEROL: 52.33 mg/dL
  CREATINE PHOSPHOKINASE: 315 u/L
  CREATININE: 0.2 mg/dL
  LACTATE DEHYDROGENASE: 200 u/L
  LIPASE: 9 u/L
  PHOSPHORUS: 10.3 mg/dL
  POTASSIUM: 5.87 MEQ/L
  TOTAL BILIRUBIN: 0.2 mg/dL
  TOTAL PROTEIN: 6 G/DL
  URIC ACID: 0.97 mg/dL
[11]
  ABSOLUTE BASOPHIL: 0 CELLS/uL
  ABSOLUTE EOSINOPHIL: 235.33 CELLS/uL
  ABSOLUTE LYMPHOCYTE: 15696 CELLS/uL
  ABSOLUTE SEGMENTED NEUTROPHIL: 4063 CELLS/uL
  BASOPHIL: 0%
  ERYTHROCYTE COUNT: 5.59 x10E6/uL
  HEMATOCRIT: 34.73%
  HEMOGLOBIN: 13.17 G/DL
  LEUKOCYTE COUNT: 20.17 x10E3/uL
  LYMPHOCYTE: 77%
  MEAN CORPUSCULAR HEMOGLOBIN: 23.57 pg
  MEAN CORPUSCULAR HEMOGLOBIN CONCENTRATION: 37.9 G/DL
  MONOCYTE: 1%
  NEUTROPHIL: 20.67%
  NUCLEATED RED BLOOD CELLS: 0 /100WBC
  PLATELET COUNT: 1455 x10E3/uL
[12]
  ALANINE AMINOTRANSFERASE: 47.67 u/L
  ALBUMIN: 3.9 G/DL
  ALKALINE PHOSPHATASE: 334.67 u/L
  ASPARTATE AMINOTRANSFERASE: 110.33 u/L
  BLOOD UREA NITROGEN: 19 mg/dL
  CARBON DIOXIDE: 16 mmol/L
  CHLORIDE: 111.67 MEQ/L
  CHOLESTEROL: 47.67 mg/dL
  CREATINE PHOSPHOKINASE: 488.33 u/L
  CREATININE: 0.18 mg/dL
  LACTATE DEHYDROGENASE: 467.33 u/L
  LIPASE: 8.33 u/L
  PHOSPHORUS: 12.73 mg/dL
  POTASSIUM: 7.45 MEQ/L
  TOTAL BILIRUBIN: 0.23 mg/dL
  TOTAL PROTEIN: 6.1 G/DL
  URIC ACID: 3.1 mg/dL
